# Measured values published in patent US20040147557A1, “Aryl piperidine derivatives as inducers of ldl-receptor expression” (priority 2003, published 2004).
# Like-named read-outs stand apart in the source and are kept apart here.
# How the values were obtained:
# LDL-r promoter = LDL-r promoter luciferase reporter gene assay in stably transfected HepG2 cells; format: cell-based, human; conditions: HepG2 cells with LDL-r promoter-luciferase construct, 24 hours incubation, RPMI medium with 2% lipoprotein-deficient serum, induction of luciferase activity, read-out: In vitro (IC50)
# Protocol: The ability of the compounds of the invention to induce LDL-r expression by human hepatocytes in vitro is determined using a human hepatocarcinoma cell line, Hep G2, as a model system. A reporter gene assay using the LDL-r promoter in front of the reporter gene Luciferase is used as a primary screen.
# HepG2 cells, stably transfected with a construct comprising the LDL-r promoter and the luciferase reporter gene, were seeded at 50.000 cells/well in 96 well plates. After 1 day, cells were incubated with compounds for 24 hours in RPMI medium containing 2% of lipoprotein-deficient serum. Compounds were tested from 10^−6M to 10^−9M. Cell lysates were prepared and the luciferase activity was measured by the luciferase assay system (Promega). Induction of luciferase activity was calculated taking untreated cells as control and ED50 of each compounds was determinated compared to the ED50 of an internal standart.
# fat-fed hamsters = test: Oral administration to fat-fed hamsters, reduction of VLD/LDL cholesterol and TG plasma levels; format: in vivo, hamster; conditions: hamsters fed 0.2% cholesterol and 10% coconut oil diet, once a day for 3 days, reduction in VLD/LDL cholesterol and TG plasmatic levels
# Protocol: The in vivo profile of the compounds is evaluated by oral administration of the compounds of the invention to fat-fed hamsters. Measurements of VLD/LDL cholesterol and triglycerides upon treatment allow the activity to be determined.
# Compounds were prepared for oral administration by milling with 0.5% hydroxypropylmethylcellulose and 5% Tween 80. Hamsters were fed for 2 weeks with a diet containing 0.2% of cholesterol and 10% of coconut oil. Then compounds were administrated once a day for 3 days, from 20 to 0.2 mg/kg. Plasma lipid levels including total cholesterol, VLD/LDL cholesterol, VLD/LDL triglycerides and HDL-cholesterol were determinated after ultracentrifugation (density 1.063 g/ml to separate VLD/LDL fraction and HDL fraction) using the Biomerieux enzymatic kit. Reductions in VLD/LDL cholesterol and TG plasmatic levels were calculated taking solvant treated animals as control and ED50 of each compound was determined.
smiles,measurement,setting,value
"CCc1ccc(C2CCN(CCCCNC(=O)c3ccc(-c4ccc(C#N)cc4)cc3)CC2)c(O)c1 [Example 14, 4′-Cyano-biphenyl-4-carboxylic Acid {4-[4-(2-hydroxy-4-ethyl-phenyl)-piperidin-1-yl]-butyl}-amide]",melting point,,252 °C
"COc1c(C2CCN(CCCCNC(=O)c3ccc(-c4ccc(Cl)cc4)cc3)CC2)ccc2ccccc12 [Example 3, 4′-Chloro-biphenyl-4-carboxylic Acid {4-[4-(1-methoxy-naphtalen-2-yl)-piperidin-1-yl]-butyl}-amide]",IC50,LDL-r promoter,10 nM
same,In vivo (ED50),fat-fed hamsters,2 mg/kg
"CCOc1cc(CC)ccc1C1CCN(CCCCNC(=O)c2ccc(-c3ccc(S(C)(=O)=O)cc3)cc2)CC1 [Example 12, 4′-Methanesulfonyl-biphenyl-4-carboxylic Acid {4-[4-(2-ethoxy-4-ethyl-phenyl)-piperidin-1-yl]-butyl}-amide]",melting point,,179 to 180 °C
"CCc1ccc(C2CCN(CCCCNC(=O)c3ccc(-c4ccc(C(F)(F)F)cc4)cc3)CC2)c(OCC2CC2)c1 [Example 2, 4′-Trifluoromethyl-biphenyl-4-carboxylic Acid [4-[4-(2-cyclopropylmethoxy-4-ethyl-phenyl)-piperidin-1-yl]-butyl]-amide]",melting point,,247 to 249 °C
"COc1c(C2CCN(CCCCNC(=O)c3ccc(-c4ccc(C#N)cc4)cc3)CC2)ccc2c1CCCC2 [Example 11, 4′-Cyano-biphenyl-4-carboxylic Acid {4-[4-(1-methoxy-5,6,7,8-tetrahydro-naphtalen-2-yl)-piperidin-1-yl]-butyl}-amide]",IC50,LDL-r promoter,10 nM
same,In vivo (ED50),fat-fed hamsters,1 mg/kg
"CCOc1cc(CC)ccc1C1CCN(CCCCNC(=O)c2ccc(-c3ccc(C#N)cc3)cc2)CC1 [Example 5, 4′-Cyano-biphenyl-4-carboxylic Acid {4-[4-(2-ethoxy-4-ethyl-phenyl)-piperidin-1-yl]-butyl}-amide]",IC50,LDL-r promoter; Homo sapiens,10 nM
same,ED50,"fat-fed hamsters; Mesocricetus auratus, 72 h, read-out: In vivo (ED50)",2 mg/kg
same,melting point,,165 °C
"Cc1ccc(C2CCN(CCCCNC(=O)c3ccc(-c4ccc(C#N)cc4)cc3)CC2)c(O)c1 [Example 18, 4′-Cyano-biphenyl-4-carboxylic Acid {4-[4-(2-hydroxy-4-methyl-phenyl)-piperidin-1-yl]-butyl}-amide]",melting point,,184 °C
